Measurements as given in ChEMBL document CHEMBL1201862, “PubChem BioAssay data set” (2004).
The source made the active and inactive calls.

Columns and labels:
[1] = HEK-293T viability loss, compound-treated – cell-based, uHTS hits, cytotoxicity control for B/T-cell NF-kB inhibitor project, dose response (AID 489019); format: functional;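 note: IC50 reflects cytotoxicity as loss of cell viability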
[2] = system: Jurkat; assay: blockers of NF-kB activation in T cells – Jurkat, luciferase reporter, luminescence, B- and T-cell, dose response (AID 489004); format: functional, cell-based; settings: Homo sapiens;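 note: NF-kB luciferase reporter Jurkat cells stimulated with PMA plus ionomycin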
[3] = target: T1, Microphthalmia-associated transcription factor (Homo sapiens, UniProt O75030); assay: reducers of TRPM1 reporter luminescence, concentration series – cell-based, SK-MEL-5, cherry-picked, set 3, MITF inhibitor project, dose response (AID 493073); format: functional;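 note: SK-MEL-5 melanoma cells with luciferase driven by the MITF target TRPM1 promoter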
T1 sequence (O75030 whole entry): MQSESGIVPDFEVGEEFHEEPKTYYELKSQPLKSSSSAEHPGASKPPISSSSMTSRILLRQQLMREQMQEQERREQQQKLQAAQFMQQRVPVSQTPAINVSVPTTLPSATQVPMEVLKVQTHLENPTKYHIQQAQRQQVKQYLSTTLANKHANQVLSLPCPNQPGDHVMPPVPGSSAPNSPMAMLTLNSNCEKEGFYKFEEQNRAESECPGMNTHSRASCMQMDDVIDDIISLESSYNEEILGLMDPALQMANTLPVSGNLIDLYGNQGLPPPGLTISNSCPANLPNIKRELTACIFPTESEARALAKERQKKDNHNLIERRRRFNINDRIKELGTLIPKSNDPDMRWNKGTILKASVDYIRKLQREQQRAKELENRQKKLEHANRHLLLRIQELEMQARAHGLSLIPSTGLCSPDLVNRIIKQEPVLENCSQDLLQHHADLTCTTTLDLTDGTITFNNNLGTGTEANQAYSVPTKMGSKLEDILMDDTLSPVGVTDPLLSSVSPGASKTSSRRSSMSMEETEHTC

[4] = system: Candida albicans; assay: Candida growth inhibition combined with fluconazole – CaCi-2 strain, Alamar Blue, dry powder, set 3, dose response (AID 488907); format: functional, organism-based
[5] = system: Vero; assay: cells; format: functional; settings: Chlorocebus sabaeus
[6] = target: T2, Neuropeptide Y receptor type 2 (Homo sapiens, UniProt P49146); assay: Fluorescence-based cell-based high-throughput dose response assay for agonists of NPY-Y2. [Related pubchem assays: 1703 (Screening assay (CNGC inhibitors).), 1359 (Screening assay (NPY-Y2 potentiators or agonists).), 1304 (Screening assay (NPY-Y1 potentiators or agonists).), 1710 (Screening assay (NPY-Y2 agonists).), 1791 (Summary AID.)]; format: functional
T2 sequence (P49146 whole entry): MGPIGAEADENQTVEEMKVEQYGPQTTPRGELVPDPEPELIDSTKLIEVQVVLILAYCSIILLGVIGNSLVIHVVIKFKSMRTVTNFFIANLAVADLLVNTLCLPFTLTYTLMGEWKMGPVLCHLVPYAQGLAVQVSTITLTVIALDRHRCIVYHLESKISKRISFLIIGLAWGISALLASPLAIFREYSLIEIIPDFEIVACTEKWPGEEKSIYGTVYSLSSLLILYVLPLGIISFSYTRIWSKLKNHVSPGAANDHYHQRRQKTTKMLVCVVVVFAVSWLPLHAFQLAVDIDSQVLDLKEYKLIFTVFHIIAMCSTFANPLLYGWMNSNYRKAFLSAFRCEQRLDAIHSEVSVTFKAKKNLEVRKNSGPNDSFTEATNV

[7] = cells; format: functional
[8] = system: HEK293; assay: Fluorescence-based counterscreen for potentiators or agonists of NPY-Y2: cell-based high-throughput dose response assay to identify inhibitors of cyclic nucleotide gated ion channel (CNGC) activity. In this assay, the parental HEK293 cell line transfected with a cyclic-nucleotide gated ion channel (CNGC)-based cAMP sensor is used to measure inhibition of isoproterenol-induced CNGC activity by test compound.; format: functional; settings: Homo sapiens
[9] = system: HEK293; assay: cells; format: functional, cell-based; settings: Homo sapiens
[10] = system: HEK293; assay: cells; format: functional, cell-based; settings: Homo sapiens; remark: listed apart in the source
[11] = THP-1 cell cytotoxicity, dose response, cytotoxicity control for non-replicating M. tuberculosis project (AID 489025); format: functional
[12] = HepG2 cell cytotoxicity, dose response, cytotoxicity control for non-replicating M. tuberculosis project (AID 489018); format: functional; settings: Mycobacterium tuberculosis
[13] = target: T3, Neuropeptide Y receptor type 1 (Homo sapiens, UniProt P25929); assay: Fluorescence-based counterscreen for agonists of NPY-Y2: cell-based high-throughput dose response assay for agonists of NPY-Y1.; format: functional
T3 sequence (P25929 whole entry): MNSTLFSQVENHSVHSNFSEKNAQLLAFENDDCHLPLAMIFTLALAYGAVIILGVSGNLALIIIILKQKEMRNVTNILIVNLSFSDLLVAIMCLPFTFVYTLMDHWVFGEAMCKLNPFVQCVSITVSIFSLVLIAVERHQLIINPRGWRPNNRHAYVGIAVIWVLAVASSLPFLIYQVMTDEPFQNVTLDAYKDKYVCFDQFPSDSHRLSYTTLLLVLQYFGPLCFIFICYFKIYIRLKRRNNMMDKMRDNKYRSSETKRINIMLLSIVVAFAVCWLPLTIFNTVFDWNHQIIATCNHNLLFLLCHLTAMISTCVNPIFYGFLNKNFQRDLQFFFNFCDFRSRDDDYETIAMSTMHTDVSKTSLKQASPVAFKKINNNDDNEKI

[14] = system: HEK293; assay: inhibition of NOD1-driven NF-kB reporter – cell-based, luminescence, uHTS, primary screen (AID 1578); format: functional; settings: Homo sapiens
[15] = system: HEK293; assay: NOD2 signaling inhibitors in MDP-stimulated cells, cell-based, uHTS, luminescence (AID 2001); format: functional; settings: Homo sapiens
[16] = target: Nucleotide-binding oligomerization domain-containing protein 2 (Homo sapiens, UniProt Q9HC29); assay: inhibition of NOD2-driven NF-kB reporter – cell-based, luminescence, uHTS, HEK293 (AID 1566); format: functional
Nucleotide-binding oligomerization domain-containing protein 2, sequence (Q9HC29 whole entry, the tested form may be a part): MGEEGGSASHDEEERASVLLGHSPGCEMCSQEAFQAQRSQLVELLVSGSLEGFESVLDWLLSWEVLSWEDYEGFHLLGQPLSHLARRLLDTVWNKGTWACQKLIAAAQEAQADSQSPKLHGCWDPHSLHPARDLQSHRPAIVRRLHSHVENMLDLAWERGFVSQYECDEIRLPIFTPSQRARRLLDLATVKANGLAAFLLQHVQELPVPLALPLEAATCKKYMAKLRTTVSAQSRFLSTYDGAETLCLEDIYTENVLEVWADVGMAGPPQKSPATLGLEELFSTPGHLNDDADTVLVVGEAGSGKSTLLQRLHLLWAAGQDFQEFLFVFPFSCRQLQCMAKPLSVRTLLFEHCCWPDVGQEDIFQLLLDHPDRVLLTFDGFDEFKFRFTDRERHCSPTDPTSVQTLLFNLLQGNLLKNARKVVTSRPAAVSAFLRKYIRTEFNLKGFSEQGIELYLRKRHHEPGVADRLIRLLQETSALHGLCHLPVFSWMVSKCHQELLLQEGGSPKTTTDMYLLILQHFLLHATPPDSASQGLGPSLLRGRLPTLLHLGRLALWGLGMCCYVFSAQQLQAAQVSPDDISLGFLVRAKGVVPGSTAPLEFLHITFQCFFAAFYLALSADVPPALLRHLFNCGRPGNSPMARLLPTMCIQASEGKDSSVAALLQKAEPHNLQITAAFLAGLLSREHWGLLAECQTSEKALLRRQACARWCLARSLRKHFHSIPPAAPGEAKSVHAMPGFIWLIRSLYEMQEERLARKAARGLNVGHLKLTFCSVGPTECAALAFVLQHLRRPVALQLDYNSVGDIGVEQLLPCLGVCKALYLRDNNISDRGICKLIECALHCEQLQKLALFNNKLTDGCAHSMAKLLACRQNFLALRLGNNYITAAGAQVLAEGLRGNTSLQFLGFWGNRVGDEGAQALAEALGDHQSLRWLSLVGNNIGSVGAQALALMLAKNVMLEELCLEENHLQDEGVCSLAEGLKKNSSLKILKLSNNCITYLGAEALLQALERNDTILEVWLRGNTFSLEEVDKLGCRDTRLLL

[17] = system: HEK293; assay: cells; format: functional, cell-based; settings: Homo sapiens; remark: listed apart in the source
[18] = system: HEK293; assay: cells; format: functional, cell-based; settings: Homo sapiens; remark: listed apart in the source
[19] = target: Nuclear receptor subfamily 0 group B member 1 (Homo sapiens, UniProt P51843); assay: Luminescence-based cell-based high throughput dose response assay for inhibitors of the orphan nuclear receptor subfamily 0, group B, member 1 (DAX1; NR0B1). [Related pubchem assays (depositor defined):AID504766, AID504790]; format: functional
Nuclear receptor subfamily 0 group B member 1, sequence (P51843 whole entry): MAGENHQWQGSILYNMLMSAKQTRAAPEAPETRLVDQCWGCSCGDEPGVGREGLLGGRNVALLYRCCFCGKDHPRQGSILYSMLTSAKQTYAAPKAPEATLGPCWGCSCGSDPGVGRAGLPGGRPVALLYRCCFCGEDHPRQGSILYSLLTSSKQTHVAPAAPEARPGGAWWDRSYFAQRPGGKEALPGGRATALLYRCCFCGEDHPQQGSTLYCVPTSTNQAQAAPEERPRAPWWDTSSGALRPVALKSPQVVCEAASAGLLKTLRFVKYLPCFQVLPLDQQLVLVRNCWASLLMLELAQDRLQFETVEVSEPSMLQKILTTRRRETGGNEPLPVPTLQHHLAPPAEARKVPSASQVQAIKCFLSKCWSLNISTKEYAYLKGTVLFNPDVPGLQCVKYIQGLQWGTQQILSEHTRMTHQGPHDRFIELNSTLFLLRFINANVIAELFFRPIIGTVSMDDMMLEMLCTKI

## COc1ccc(/C=C2\SC(=O)N(CCCC(=O)Nc3cc(Cl)ccc3C(=O)O)C2=O)cc1
[1]
  IC50: > 80 µM (inactive)
[2]
  IC50: < 0.16 µM (active)
[3]
  AC50: 0.528 µM (active)

## O=C(c1ccc(Cl)cc1)N1CCN(c2ncccc2C(F)(F)F)CC1
[4]
  AC50: 0.217 µM (active)

## O=C(N/N=C/c1cccc2cccnc12)c1ccccc1O
[5]
  CC50: 18.8 µM (active)
[6]
  EC50: > 35.4 µM (not active)
[7]
  IC50: 0.97 µM (active)
[8]
  EC50: > 35.4 µM (not active)
[9]
  IC50: > 20 µM (inactive)
[10]
  IC50: > 20 µM (inactive)
[11]
  CC50: 11.7 µM (active)
[12]
  CC50: > 20 µM (active)
[13]
  EC50: > 35.4 µM (not active)
[14]
  EC50: > 20 µM (inactive)
[15]
  IC50: 5.04 µM (inactive)
[16]
  EC50: > 20 µM (inactive)
[17]
  IC50: 6.52 µM (active)
[3]
  AC50: 24.8 µM (active)

## N#C/C(=N/Nc1ccc([N+](=O)[O-])cc1)C(=N)N1CCCCC1
[18]
  IC50: > 67.5 µM (inactive)
[19]
  IC50: > 67.5 µM (inactive)
